Patent publication US6930113B2, “Nitrosated and nitrosylated phosphodiesterase inhibitors, compositions and methods of use” (Nitromed, Inc., priority 1996, dated 2005)

Test system: Human corpus cavernosum tissue
Test: In vitro comparative relaxation responses (isometric tension of tissue strips in organ chambers)
Assay type: cell-based
Conditions: doses of 10 μM and 30 μM; tissue contracted with phenylephrine 7×10^−7 M; compared with equimolar dipyridamole; FIG. 58
From the text: Human corpus cavernosum tissue biopsies were obtained at the time of penile prosthesis implantation from impotent men. The tissue was maintained in a chilled Krebs-bicarbonate solution prior to assay. The tissue was cut into strips of 0.3×0.3×1 cm and suspended in organ chambers for isometric tension measurement. Tissues were incrementally stretched until optimal isometric tension for contraction was obtained. Once this was achieved, the tissues were contracted with phenylephrine (7×10^−7 M) and once a stable contraction was achieved, the tissues were exposed to either dipyridamole or the compound of Example 1 (10^−6 to 3×10^−5 M) by cumulative additions to the chamber. At the end of the experiment, papaverine (10^−4 M) was added to obtain maximal relaxation. […] Data were expressed as the percent loss in tone from the phenylephrine-induced contraction (0%=phenylephrine contraction; −100%=tone after administration of papaverine).

SMILES: CC(C)(CC(=O)OCCN(CCOC(=O)CC(C)(C)SN=O)c1nc(N2CCCCC2)c2nc(N(CCOC(=O)CC(C)(C)SN=O)CCOC(=O)CC(C)(C)SN=O)nc(N3CCCCC3)c2n1)SN=O [Example 1, 2,6-bis(Diethyl(3-methyl-3-(nitrosothio)butyric acid ester)amino)-4,8-dipiperidinopyrimido-[5,4-d]-pyrimidine]
- relaxing the phenylephrine-induced contraction (percent loss in tone from the phenylephrine-induced contraction): more efficacious
